From patent publication US7989467B2, “Use of indole-derived compounds for the preparation of a medicament that can be used to treat diseases related to the splicing process” (Centre National de la Recherche Scientifique (CNRS), priority 2003, dated 2011)

How the values were obtained:
M3S1 pre-messenger = test: In vitro splicing of M3S1 pre-messenger RNA (dependent on ESE recognized by SR ASF/SF2 protein); type: biochemical, human; details: for M3S1 splicing inhibition: 10 μM, FIG. 2; for effect on M3S1 splicing: concentration not given
Experimental: The compounds presented in Tables 1 and 2 below were tested in a concentration range of 1 μM, 10 μM and 100 μM, and were selected initially on the basis of their capacity to inhibit, in vitro, the splicing of two types of model pre-mRNAs.
The second type of M3S1 pre-messenger is derived from the human […] gene (Labourier, E. et al. (1999), Antagonism between RSF1 and SR proteins for both splice-site recognition in vitro and Drosophila development. Genes Dev. 13, 740-753) and its splicing is strictly dependent on an auxiliary ESE sequence recognized specifically by the SR ASF/SF2 protein. Conditions for the transcription, splicing and analysis of this pre-messenger's products are identical to those used for the MINX pre-messenger.

[1] = test system: M3S1 transcript splicing complexes; test: In vitro splicing-complex formation on M3S1 transcript; type: biochemical, human; details: 50 μM; 30 minutes of incubation; FIG. 3
Description: The activity of the products has also been tested in splicing-complex formation reactions in vitro (FIG. 3) as described in Pilch B. et al. (Specific inhibition of serine- and arginine-rich splicing factors, phosphorylation, spliceosome assembly, and splicing by the antitumor drug NB-506. Cancer Res. 2001. 61, 6876-6884).
M3S1 transcript splicing reactions in the presence of various compounds according to the invention performed under the same conditions as those described for FIG. 1 are stopped after 30 minutes of incubation by the addition of heparin and glycerol at a final concentration of 1 mg/ml and 15%, respectively.

[2] = test system: M3S1-PDH pre-messenger RNA; test: Splicing of M3S1-PDH pre-messenger RNA (pyruvate dehydrogenase E1α subunit, mutated intron 7); type: biochemical, human; details: for M3S1-PDH splicing: FIG. 4B
Description: In this substrate the sequences corresponding to exon 7-intron 7-exon 8 of the gene coding for the pyruvate dehydrogenase E1α subunit (PDH E1α) are inserted downstream from the M3S1 sequence (M3S1-PDH, see FIG. 4A). Intron 7 of this transcript contains a point mutation which creates a high affinity SR hSC35 protein binding site. This mutation, which causes the loss of PDH E1α expression in patients suffering from Leigh syndrome (an encephalopathy in children), leads to the appearance of a cryptic site 46 nucleotides downstream from the authentic 5′ splicing site (FIG. 4A). This substrate, likely to give rise to two products, one with and one without the 46 nucleotides of PDH intron 7, is ideal for determining the specificity of the compounds with respect to the various ESE sequences present within the same transcript.
Compound C7 is thus an excellent inhibitor of defective splicing that is dependent on hSC35 ESE, but not on authentic splicing. This compound can thus be envisaged for treating patients suffering from this encephalopathy.

GFP-ESE transgene = test: ESE-dependent splicing of GFP-ESE transgene mRNA in HeLa cells (RT-PCR); type: cell-based, human; details: 1 μM per FIG. 5 legend
Description: In order to test the efficiency of indole derivatives ex vivo, […] HeLa cell lines were established stably expressing a transgene corresponding to GFP whose sequence was interrupted by an ESE sequence flanked by two identical introns of the human […] gene described in Example 1 (see FIG. 5A).
To detect the messenger RNAs arising from the splicing of this gene, the RT-PCR technique was used with primers in the GFP sequence on each side of the ESE and the PCR products were analyzed on agarose gel.
In almost all the lines established, a single fragment of 250 base pairs (bp) was amplified by PCR (FIG. 5A, lanes 2 and 3) and it corresponds to an RNA messenger which included the ESE between the two GFP sequences.

SRp55 = target: T1, SRp55 (Homo sapiens, UniProt Q13247); test: In vitro splicing results, Table 3: SRp55; type: biochemical; details: summary of Table 3
T1 sequence (Q13247 1-344): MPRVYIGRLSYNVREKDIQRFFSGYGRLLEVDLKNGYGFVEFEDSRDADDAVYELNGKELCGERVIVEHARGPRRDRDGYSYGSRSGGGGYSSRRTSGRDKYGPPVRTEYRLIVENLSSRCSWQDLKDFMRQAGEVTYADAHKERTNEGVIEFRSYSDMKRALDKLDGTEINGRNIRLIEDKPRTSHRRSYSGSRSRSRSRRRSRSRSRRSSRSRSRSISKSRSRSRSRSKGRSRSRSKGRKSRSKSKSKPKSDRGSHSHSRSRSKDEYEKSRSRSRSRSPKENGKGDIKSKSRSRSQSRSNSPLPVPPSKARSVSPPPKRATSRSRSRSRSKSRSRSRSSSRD

HIV = test: Inhibition of HIV multiplication in PMA-stimulated U1 cells (RT-PCR of viral transcripts); type: cell-based; details: 2.5 μM; 24 h; U1 cells treated with 50 nM PMA; FIG. 6
Description: To this end, human […] cell line U1, which is chronically infected by HIV (Folks et al., 1988. Characterization of a promonocyte clone chronically infected with HIV and inducible by 13-phorbol-12-myristate acetate. J. Immunol., 140: 1117-1122) and which produces large quantities of virus after stimulation by PMA (phorbol myristate acetate), was used. As a result, this cell line constitutes an excellent model to mimic the transition between the latency phase and the viral production phase observed in patients infected by HIV.
The results of this experiment are presented in FIG. 6 in which U1 cells (5×10^5) were treated with 50 nM of PMA in the absence (FIG. 6, lane 1) or in the presence of 2.5 μM of compounds C47, C97, C58, C57, C92, C91, C90, C83, C73, C34, C51, C45, C13, C10, C44, C6, C7, C41, C50, C32, C2, C1, C29, C35 and C99 (FIG. 6, lanes 3-27, respectively). After 24 h of treatment, the virus's transcripts were amplified by RT-PCR using specific VIH, BSS and SJ4.7A primers (Jacquenet et al., 2001, A second exon splicing silencer within human immunodeficiency virus type 1 tat exon 2 represses splicing of Tat mRNA and binds protein hnRNP. H. J. Biol. Chem. 276: 40464-75) and a radioactive tracer (α-32P) CTP.

Cc1c2ccnc(Cl)c2cc2c3cn(C)ccc-3nc12 [C3, 10-chloro-2,6-dimethyl-2H-pyrido[3′,4′:4,5]pyrrolo[2,3-g]isoquinoline]
M3S1 splicing inhibition (M3S1 pre-messenger): M3S1 splicing inhibition
inhibition of the formation of splicing complexes A and B on M3S1 [1]: inhibition of the formation of splicing complexes A and B

CC(=O)Oc1nccc2c(C)c3[nH]c4ccc(O)cc4c3cc12 [C4, 9-hydroxy-5-methyl-6H-pyrido[4,3-b]carbazol-1-yl acetic acid ester]
effect on M3S1 splicing (M3S1 pre-messenger): inactive on M3S1
M3S1-PDH splicing [2]: has no effect

COc1ccc2[nH]c3c(C)c4ccncc4c(NCCCN(C)C)c3c2c1 [C7, N′(9-methoxy-5-methyl-6H-pyrido[4,3-b]carbazol-11-yl)-N,N-dimethyl-propane-1,3-diamine]
effect on M3S1 splicing (M3S1 pre-messenger): do not modify M3S1 splicing
RNA species from normal PDH splicing ([2]; FIG. 4B lane 4): has no effect
formation of RNA species arising from PDH splicing that include the 46 nucleotides of intron 7 (defective splicing dependent on hSC35 ESE) ([2]; FIG. 4B lane 4): blocks the formation

CCN(CC)CCCNc1nccc2c(C)c3[nH]c4ccc(OC)cc4c3cc12 [C8, N,N-diethyl-N′-(9-methoxy-5-methyl-6H-pyrido[4,3-b]carbazol-1-yl)-propane-1,3-diamine]
M3S1-PDH splicing [2]: Inhibition of M3S1-PDH

COc1ccc2[nH]c3c(C)c4ccnc(NCCCN5CCN(CCCN)CC5)c4cc3c2c1 [C14]
M3S1 splicing inhibition (M3S1 pre-messenger): M3S1 splicing inhibition
inhibition of the formation of splicing complexes A and B on M3S1 [1]: inhibition of the formation of splicing complexes A and B
splicing profile of the GFP-ESE transgene (RT-PCR fragment without ESE) (GFP-ESE transgene): revealed a fragment of 194 bp

CCN(CC)CCC(C)Nc1nccc2c(C)c3c(cc12)c1cnccc1n3C (centres unmarked) [C28, N-3-(5,6-dimethyl-5H-pyrido[3′,4′:4,5]pyrrolo[2,3-g]isoquinolin-10-yl)-N,N-1-diethyl-butane-1,3-diamine]
splicing profile of the GFP-ESE transgene (RT-PCR fragment without ESE) (GFP-ESE transgene): revealed a fragment of 194 bp

CCN(CC)CCNc1nccc2c(C)c3c(cc12)c1cc(OC)ccc1n3C [C50, N,N-diethyl-N′-(9-methoxy-5,6-dimethyl-6H-pyrido[4,3-b]carbazol-1-yl)-ethane-1,2-diamine]
inhibit the activity of the SRp55 protein specifically (SRp55): inhibit the activity of the SRp55 protein specifically
inhibition of HIV multiplication (amplification of viral transcripts) (HIV): excellent inhibitors of HIV multiplication

CNCCCNc1ncc(C)c2[nH]c3ccc4cc(OC)ccc4c3c12 [C57, N-(3-methoxy-8-methyl-7H-benzo[e]pyrido[4,3-b]indol-11-yl)-N′-methyl-propane-1,3-diamine]
inhibit the activity of the SRp55 protein specifically (SRp55): inhibit the activity of the SRp55 protein specifically
inhibition of HIV multiplication (amplification of viral transcripts) (HIV): excellent inhibitors of HIV multiplication

Cc1cnc(NCCCN(C)C)c2c1[nH]c1ccc3ccccc3c12 [C87, N,N-dimethyl-N′-(8-methyl-7H-benzo[e]pyrido[4,3-b]indol-11-yl)-propane-1,3-diamine]
inhibit the activity of the SRp55 protein specifically (SRp55): inhibit the activity of the SRp55 protein specifically

Cc1cnc(NCC(C)CN(C)C)c2c1[nH]c1ccc3cc(O)ccc3c12 (centres unmarked) [C88, 11-(3-dimethylamino-2-methyl-propylamino)-8-methyl-7H-benzo[e]pyrido[4,3-b]indol-3-ol]
inhibit the activity of the SRp55 protein specifically (SRp55): inhibit the activity of the SRp55 protein specifically

COc1cccc2c1ccc1[nH]c3c(C)cnc(NCCCN(C)C)c3c12 [C93, N′-(4-methoxy-8-methyl-7H-benzo[e]pyrido[4,3-b]indol-11-yl)-N,N-dimethyl-propane-1,3-diamine]
inhibit the activity of the SRp55 protein specifically (SRp55): inhibit the activity of the SRp55 protein specifically

COc1ccc2c(ccc3[nH]c4c(C)cnc(NCCCCCCN)c4c32)c1 [C95, N-(3-methoxy-8-methyl-7H-benzo[e]pyrido[4,3-b]indol-11-yl)-hexane-1,6-diamine]
inhibit the activity of the SRp55 protein specifically (SRp55): inhibit the activity of the SRp55 protein specifically
